Experimental data reported in PubChem BioAssay AID330 (DTP/NCI, 2004).
Values joined by “and” are separate entries in the source; they are usually repeats but may differ in a detail not shown here. Identical values can stand only once. Toxic doses and inconclusive results are not listed.

Tested on: P388 leukemia ip, CD2F1 mice, survival T/C
Assay: NCI In Vivo Anticancer Drug Screen. Data for tumor model P388 Leukemia (intraperitoneal) in CD2F1 (CDF1) mice
Conditions: endpoint: median survival time, higher = longer survival
Procedure, shortened: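 Mice carrying the transplanted tumor received test compound or vehicle. Survival was recorded in each group, and the value is the treated-group measurement divided by that of the vehicle-treated control group.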

[1] = dose: 50.0 mg/kg/injection, schedule: Q01DX009 (ip), vehicle: saline
[2] = dose: 100.0 mg/kg/injection, schedule: Q01DX009 (ip), vehicle: saline
[3] = dose: 25.0 mg/kg/injection, schedule: Q01DX009 (ip), vehicle: saline
[4] = dose: 50.0 mg/kg/injection, schedule: Q01DX005 (ip), vehicle: Klucel (hydroxypropylcellulose) (HPC)
[5] = dose: 100.0 mg/kg/injection, schedule: Q01DX005 (ip), vehicle: Klucel (hydroxypropylcellulose) (HPC)
[6] = dose: 200.0 mg/kg/injection, schedule: Q01DX005 (ip), vehicle: Klucel (hydroxypropylcellulose) (HPC)

## COc1cccc(/C=N/NC(=O)c2ccccc2N2CCCC2)c1O
dose: 12.5 mg/kg/injection, schedule: Q01DX009 (ip), vehicle: olive oil, sesame oil, peanut oil
  T/C: 93 % of control
dose: 25.0 mg/kg/injection, schedule: Q01DX009 (ip), vehicle: olive oil, sesame oil, peanut oil
  T/C: 97 % of control
dose: 50.0 mg/kg/injection, schedule: Q01DX009 (ip), vehicle: olive oil, sesame oil, peanut oil
  T/C: 97 % of control
dose: 100.0 mg/kg/injection, schedule: Q01DX009 (ip), vehicle: olive oil, sesame oil, peanut oil
  T/C: 96 % of control
dose: 200.0 mg/kg/injection, schedule: Q01DX009 (ip), vehicle: olive oil, sesame oil, peanut oil
  T/C: 94 % of control

## C=C(CCCCC)C(=O)/C=C/c1ccccc1
dose: 50.0 mg/kg/injection, schedule: Q01DX009 (ip), vehicle: Klucel (hydroxypropylcellulose) (HPC)
  T/C: 103 % of control
dose: 100.0 mg/kg/injection, schedule: Q01DX009 (ip), vehicle: Klucel (hydroxypropylcellulose) (HPC)
  T/C: 107 % of control
dose: 200.0 mg/kg/injection, schedule: Q01DX009 (ip), vehicle: Klucel (hydroxypropylcellulose) (HPC)
  T/C: 118 % of control

## COC(=O)C1CSC(c2c(COP(=O)(O)O)cnc(C)c2O)N1 (stereo not drawn)
dose: 100.0 mg/kg/injection, schedule: Q01DX001 (ip), vehicle: saline
  T/C: 103 % of control
dose: 200.0 mg/kg/injection, schedule: Q01DX001 (ip), vehicle: saline
  T/C: 105 % of control
dose: 400.0 mg/kg/injection, schedule: Q01DX001 (ip), vehicle: saline
  T/C: 96 % of control

## C=C(C)C(=O)NCC(=O)NCC(=O)NCC(=O)Oc1ccc([N+](=O)[O-])cc1
dose: 50.0 mg/kg/injection, schedule: Q04DX003 (ip), vehicle: saline with Tween-80
  T/C: 100 % of control
dose: 100.0 mg/kg/injection, schedule: Q04DX003 (ip), vehicle: saline with Tween-80
  T/C: 90 % of control
dose: 200.0 mg/kg/injection, schedule: Q04DX003 (ip), vehicle: saline with Tween-80
  T/C: 99 % of control

## COc1ccc(OC)c(N=Cc2cccs2)c1
[1]
  T/C: 90 % of control
[2]
  T/C: 100 % of control
dose: 200.0 mg/kg/injection, schedule: Q01DX009 (ip), vehicle: saline
  T/C: 92 % of control

## CC1CN1P(=O)(N1CCCC1)N1CC1C (stereo not drawn)
dose: 4.4 mg/kg/injection, schedule: Q01DX009 (ip), vehicle: saline
  T/C: 109 % of control
dose: 6.6 mg/kg/injection, schedule: Q01DX009 (ip), vehicle: saline
  T/C: 120 % of control
dose: 12.5 mg/kg/injection, schedule: Q04DX003 (ip), vehicle: saline
  T/C: 100 % of control
[3]
  T/C: 150 % of control
dose: 25.0 mg/kg/injection, schedule: Q04DX003 (ip), vehicle: saline
  T/C: 108 % of control
dose: 66.0 mg/kg/injection, schedule: Q04DX003 (ip), vehicle: saline
  T/C: 166 % of control
[2]
  T/C: 86 % of control
dose: 100.0 mg/kg/injection, schedule: Q04DX003 (ip), vehicle: saline
  T/C: 175 % of control

## Cc1ccc(S(=O)(=O)N2CCC2)cc1
dose: 100.0 mg/kg/injection, schedule: Q01DX009 (ip), vehicle: saline with Tween-80
  T/C: 90 % of control
dose: 200.0 mg/kg/injection, schedule: Q01DX009 (ip), vehicle: saline with Tween-80
  T/C: 95 % of control
dose: 400.0 mg/kg/injection, schedule: Q01DX009 (ip), vehicle: saline with Tween-80
  T/C: 100 % of control

## COC(=O)C1(C(=O)OC)N=C(C)OO1
dose: 6.25 mg/kg/injection, schedule: Q01DX009 (ip), vehicle: saline
  T/C: 99 % of control and 97 % of control
dose: 12.5 mg/kg/injection, schedule: Q01DX009 (ip), vehicle: saline
  T/C: 101 % of control and 107 % of control
[3]
  T/C: 91 % of control and 97 % of control
[1]
  T/C: 96 % of control and 97 % of control
[2]
  T/C: 101 % of control

## Cc1nn2c(-c3ccccc3)cnnc2c1-c1ccccc1
[4]
  T/C: 101 % of control
[5]
  T/C: 98 % of control
[6]
  T/C: 96 % of control

## COc1cccc2c1C(=O)c1c(O)c3c(c(O)c1C2=O)C[C@@](O)(C(=O)CSC(C)=O)C[C@@H]3OC1CC(N)C(O)C(C)O1 (stereo partly drawn)
dose: 25.0 mg/kg/injection, schedule: Q01DX009 (ip), vehicle: water
  T/C: 108 % of control and 90 % of control

## COC(=O)/C=C\C(C)=C/C(=O)OC
[4]
  T/C: 100 % of control
[5]
  T/C: 99 % of control
[6]
  T/C: 99 % of control

## Cc1cc(OC(=O)c2ccccc2OS(N)(=O)=O)ccc1Cl
dose: 60.0 mg/kg/injection, schedule: Q01DX005 (ip), vehicle: Klucel (hydroxypropylcellulose) (HPC)
  T/C: 98 % of control
dose: 120.0 mg/kg/injection, schedule: Q01DX005 (ip), vehicle: Klucel (hydroxypropylcellulose) (HPC)
  T/C: 97 % of control
dose: 240.0 mg/kg/injection, schedule: Q01DX005 (ip), vehicle: Klucel (hydroxypropylcellulose) (HPC)
  T/C: 94 % of control
